In assay [1] the test system is (D1)mix. As to the kind of experiment: Switch-on NIR-fluorescence enhancement with DNA. Type of assay: binding. As for the experimental part: (§1) All the chemicals, reagents, single-stranded oligos (dA20, dT20, dG20, dC20), self-complementary oligos {d(ATAT)5, (D1)mix, Drew-AT, Calf-Thymus DNA (CT-DNA), (DM1, DM2, DM3, DM4, DM5, DM6 and DM7)}, RNA, were purchased from Sigma-Aldrich. ^1H and ^13C NMR spectra were recorded on a Bruker AV-400 MHz spectrometer with chemical shifts reported as parts per million (ppm) (in DMSO-d6, tetramethylsilane as an internal standard) at 20° C. UV-vis absorption and emission spectra were measured in quartz cuvettes of 1 cm path length. High resolution mass spectra (HRMS) were obtained on Agilent Technologies 6538 UHD Accurate-Mass Q-TOF LC/MS spectrometer. All biophysical studies (UV-vis, fluorescence and Cirular dichroism) are carried out at the concentration 0-5 μM of probe, volume=500 μL, temperature=25° C. and time of incubation=2 minutes. HeLa cells and MCF7 cells used in the biological studies are obtained from “Molecular reproduction, development and genetics lab, Indian institute of science, Bangalore, India”
(§2) Stock solutions of QCy-DT are prepared in double-distilled (dd) water in the order of 10^−3 M and stored at about −10° C. DNA stock solutions are prepared by dissolving oligo samples in double-distilled (dd) water in the order of 10^−4 M. Solutions of DNA duplexes are prepared in Tris-HCl (100 mM, pH=7.4) buffer solution by mixing complementary DNA strands in equimolar concentration. This solution is then subjected to annealing by heating up to about 85° C. for about 15 minutes, subsequently cooled to room temperature for about 7 hours and stored in the refrigerator (about 4° C.) for about 4 hours.
(§3) The UV-vis absorption and emission spectra are recorded on Agilent Technologies Cary series UV-vis-NIR absorbance and Cary eclipse fluorescence spectrophotometers, respectively. Thermal denaturation (UV-melting) studies are carried out on Cary 5000 UV-vis-NIR spectrophotometer equipped with Cary temperature controller in the range of 10° C. to 90° C. with a ramp rate of 1° C./min. The variable temperature/wavelength mode is used. Absorption is monitored at 260 nm with regular 5° C. intervals. Melting temperatures (Tm) of DNA samples are calculated from the first derivatives of the absorption vs. temperature curves (thermal denaturation or melting curves) obtained by monitoring at 260 nm.
(§4) For this, poly AT-duplexes such as (A-T)20, self-complementary d(ATAT)5, Drew-AT (14 base pair self-complementary sequence with 6AT-base pairs in central core), poly GC-duplex (G-C)20, (D1)mix, which is a 16 base pair long self-complementary duplex and CT-DNA as mixed AT/GC duplexes is chosen (Table 2). […] QCy-DT experience hydrophobic environment upon binding to minor groove of AT-rich duplex DNA which prevents aromatic π-stacking interactions with base pairs and other molecules of the probe that led to the hyperchromicity in the absorbance maximum of QCy-DT. […] Further, the absorption and emission properties of QCy-DT in the presence of poly AT- and GC-duplexes are studied. […] Further, we also studied the emission behavior of QCy-DT in presence of CT-DNA, (D1)mix, single-stranded (ss) DNAs and RNA. […] To ascertain the switch-on behavior of QCy-DT in the presence of AT-rich DNA duplex, viscosity measurements are performed by increasing the glycerol content in buffer solution. […] Consequently, the observed strong fluorescence enhancement in the presence of AT-rich DNA duplexes is the result of restriction of intramolecular rotation of probe QCy-DT in the constrained environments of DNA, which also facilitates the desolvation (water molecules) around QCy-DT in the hydrophobic environment of DNA duplex (FIG. 1c).

The subject of assay [2] is Drew-AT. As to the kind of experiment: Switch-on NIR-fluorescence enhancement with DNA. Type of assay: binding. As for the experimental part: as §1, §2, §3, §4
Assay [3] relates to single-stranded (ss) DNAs. Briefly: Switch-on NIR-fluorescence enhancement with DNA. As to conditions: ssDNAs. Type of assay: binding. As for the experimental part: as §1, §2, §3, §4
Another assay deals with (G-C)20. As to the kind of experiment: Switch-on NIR-fluorescence enhancement with DNA. Type of assay: binding. As to conditions: QCy-DT 2 μM, (G-C)20 4 μM, Tris-HCl. As for the experimental part: as §1, §2, §3, §4
The subject of assay [4] is (A-T)20. Briefly: Switch-on NIR-fluorescence enhancement with DNA. Type of assay: binding. As for the experimental part: as §1, §2, §3, §4
Another assay deals with P. falciparum. Briefly: IC50 determination in malaria parasites. Type of assay: cell-based, Plasmodium falciparum. As to conditions: for IC50: Plasmodium falciparum. As for the experimental part:
P. falciparum strain 3D7 is cultured. Briefly, malaria parasites are cultured in human erythrocytes in T75 flasks with RPMI 1640 (Gibco) supplemented with 10 μg/mL gentamicin (Sigma), 50 μg/mL ampicillin, 0.2% NaHCO3 (Sigma), 0.5% albumax (Invitrogen) and Hypoxanthine (27 mg/L). The culture is maintained under standard conditions (37° C. in 90% nitrogen, 5% CO2, and 5% O2). For synchronization of the parasites, ring-staged parasites are treated with 5% sorbitol at 37° C. for about 5-10 min, followed by washing with pre-warmed incomplete medium twice, and placed back in complete medium. QCy-DT probe (resuspended in Mili-Q water) is added to parasites (25±2 hpi) at a final concentration of 0.5 μM and the parasites are incubated for 30 min at 37° C. Following treatment fluorescence imaging of the parasites is performed using Carl Zeiss AXIO Imager Z1 and the software used for image capturing was AxioVision Rel. 4.8. To determine the IC50 value of QCy-DT against P. falciparum, parasites are synchronized in ring stage (˜12±2 h) and parasitemia is maintained at ˜1%, followed by treatment with 0, 0.5, 1, 2 and 4 μM of QCy-DT at early trophozoite stage (˜20±2 h). After about 40 hours of the QCy-DT treatment, Geimsa stained slides are prepared, and parasitemia is counted. At least six homogenous microscopic fields are counted for each treatment, and each experiment is done in triplicates. The graphs are plotted for the percentage of parasitemia (at 0 time point and at 40 hours after incubation with QCy-DT) against QCy-DT concentration, with mean and standard error.

Assay [5] relates to (D1)mix. As to the kind of experiment: Binding constant from fluorescence titration. As to conditions: non-linear single-binding mode curve fitting. As for the experimental part:
(§5) To determine the binding stoichiometry of QCy-DT with Drew-AT, continuous variation method is employed, varying the ligand concentrations to generate the Job plot by fixing the total concentration of [QCy-DT+Drew-AT] at 2 μM. […] The binding constants of [QCy-DT+DNA] complexes are calculated from the fluorescence titration experiments using non-linear (single-binding mode) curve fitting analysis. […] Next, the fluorescence quantum yield of QCy-DT is estimated in the presence of AT- and GC-rich DNA duplexes (Table 3) as follows: […]

Assay [6] relates to Drew-AT. Briefly: Binding constant from fluorescence titration. As to conditions: non-linear single-binding mode curve fitting. As for the experimental part:
as §5

Assay [7] has as its system (A-T)20. Briefly: Binding constant from fluorescence titration. As for the experimental part:
as §5

1 compound from US10683273B2, “Compounds as DNA probes, methods and applications thereof” (JAWAHARLAL NEHRU CENTRE FOR ADVANCED SCIENTIFIC RESEARCH, priority 2015, dated 2020) can be followed below.

Where two headings read alike, the source gives them in different places.

With `C[n+]1c(/C=C/c2ccc(O)c(/C=C/c3sc4ccccc4[n+]3C)c2)sc2ccccc21` [QCy-DT, quinone cyanine-dithiazole], the fluorescence enhancement in the assay on (D1)mix [1] was roughly 55 fold; with Drew-AT [2] (QCy-DT 2 μM, Drew-AT 4 μM, λem=650 nm, vs probe alone) it was roughly 200 fold; in [3], roughly 2 fold; in the assay on (G-C)20 it was 8 fold; in the assay with (A-T)20 [4] (QCy-DT 2 μM, (A-T)20 4 μM, Tris-HCl), roughly 250 fold. Moreover, in the assay on Drew-AT [2] (ratio 5′-AAATTT-3′ / 5′-AATT-3′), the “fluorescence enhancement with 5′-AAATTT-3′ core, higher than 5′-AATT-3′ core” value is listed as roughly 4 fold. Besides, in the assay with (A-T)20 [4] (ratio (A-T)20 / d(ATAT)5), the “difference in fluorescence enhancement, (A-T)20 compared to d(ATAT)5” value is on record as roughly 4 fold. The parasite stage progression entry in the assay with P. falciparum (8 μM) is “arrested in the trophozoite stage”. In addition, the IC50 in the assay on P. falciparum (against malarial parasites, as printed in the description, read-out: inhibitory concentration (IC50)) was less than 4 µM; in the assay with P. falciparum (early trophozoite stage, 40 h treatment, parasitemia count, read-out: IC50), less than 4 µM. Moreover, the “binding affinity Ka” value worked out at 430000 M⁻¹ in the assay on (D1)mix [5], 1.5e+06 M⁻¹ in the assay with Drew-AT [6] and 2.9e+06 M⁻¹ in the assay with (A-T)20 [7] (non-linear single-binding mode curve fitting). In addition, the “binding affinity for (A-T)20 higher than for Drew-AT” value in the assay with (A-T)20 [7] (ratio of Ka) is 2 fold.
